Experiment: Solubility of sitagliptin salts in water at 25° C.
Protocol: The solubility in water was measured using Crysta™ from Avantium Technologies.

solubility in water (in words)	Solubility in water (25° C.) [mg/mL]	solubility (25 °C, thermodynamic from solid) [mg/mL]	Compound
very good	>500		N[C@@H](CC(=O)N1CCn2c(nnc2C(F)(F)F)C1)Cc1cc(F)c(F)cc1F.O=C[C@H](O)[C@@H](O)[C@H](O)[C@H](O)C(=O)O [D-Glucuronate, Sitagliptin D-Glucuronate]
		100 to 120	N[C@@H](CC(=O)N1CCn2c(nnc2C(F)(F)F)C1)Cc1cc(F)c(F)cc1F [Dihydrogen phosphate, sitagliptin dihydrogen phosphate, reference compound]
very good			Sitagliptin Oxalate

Source: patent publication US20120077760A1, “NOVEL SALTS OF SITAGLIPTIN” (LEK Pharmaceuticals D.D., priority 2009, published 2012)
